Measured values from patent US6455587B1 (priority 2000, dated 2002).

target: T1, recombinant HIV-1 protease (Human immunodeficiency virus type 1 group M subtype B, UniProt P04585); test: Enzymatic fluorometric (FRET) assay for determining the inhibition constant (Ki) against HIV protease; assay type: biochemical; settings: Ki (nM)
T1 construct: recombinant HIV-1 protease (final concentration 2.18 nM) purchased from Bachem Bioscience; purchased Bachem Bioscience
Method in brief: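 FRET substrate (EDANS/DABCYL) cleavage followed at 31° C., ex 340/em 485 nm. Initial velocity recorded over 4 min, then inhibitor added at several concentrations and rate read another 4 min. Ki derived from v0 and vi via Henderson equation using [S] and Km.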

| Compound | Ki |
| --- | --- |
| CC(C)(C)OC(=O)N[C@@H](CCCCNC(=O)OCC1c2ccccc2-c2ccccc21)C(=O)O [Compound 138] | > 200 nM |

same assay, conditions: fluorometric FRET assay, 31° C., pH 4.7, recombinant HIV-1 protease 2.18 nM, substrate 10 μM; read-out: Ki

| Compound | Ki |
| --- | --- |
| COc1ccc(C=CC(=O)NCCCC[C@@H](C(=O)O)N(CC(C)C)S(=O)(=O)c2ccc([N+](=O)[O-])cc2)c(OC)c1 [Compound 191, Nα-Isobutyl-Nα-(4-nitrobenzenesulfonyl)-Nε-(2,4-dimethoxycinnamoyl)-L-lysine] | > 75 nM |
| CC(C)CN([C@@H](CCCCNC(=O)COc1ccccc1)C(=O)O)S(=O)(=O)c1ccc(N)cc1 [Compound 192, Nα-Isobutyl-Nα-(4-aminobenzenesulfonyl)-Nε-phenoxyacetyl-L-lysine] | 8.2 nM |
| COc1ccc(C=CC(=O)NCCCC[C@@H](C(=O)O)N(CC(C)C)S(=O)(=O)c2ccc([N+](=O)[O-])cc2)cc1OC [Compound 193, Nα-Isobutyl-Nα-(4-nitrobenzenesulfonyl)-Nε-(3,4-dimethoxycinnamoyl)-L-lysine] | > 75 nM |
| CC(C)CN([C@@H](CCCCNC(=O)CCc1ccc(N)cc1)C(=O)O)S(=O)(=O)c1ccc(N)cc1 [Compound 194, Nα-Isobutyl-Nα-(4-aminobenzenesulfonyl)-Nε-(4-aminodihydrocinnamoyl)-L-lysine] | > 300 nM |
| CC(C)CN([C@@H](CCCCNC(=O)CCc1cccnc1)C(=O)O)S(=O)(=O)c1ccc(N)cc1 [Compound 195, Nα-Isobutyl-Nα-(4-aminobenzenesulfonyl)-Nε-[3-(3-pyridyl)propionyl]-L-lysine] | > 300 nM |
| COc1ccc(CCC(=O)NCCCC[C@@H](C(=O)O)N(CC(C)C)S(=O)(=O)c2ccc(N)cc2)c(OC)c1 [Compound 196, Nα-Isobutyl-Nα-(4-aminobenzenesulfonyl)-Nε-(2,4-dimethoxydihydrocinnamoyl)-L-lysine] | 17.1 nM |
| COc1ccc(OC)c(CCC(=O)NCCCC[C@@H](C(=O)O)N(CC(C)C)S(=O)(=O)c2ccc(N)cc2)c1 [Compound 197, Nα-Isobutyl-Nα-(4-aminobenzenesulfonyl)-Nε-(2,5-dimethoxydihydrocinnamoyl)-L-lysine] | 20.7 nM |
| COc1cc(CCC(=O)NCCCC[C@@H](C(=O)O)N(CC(C)C)S(=O)(=O)c2ccc(N)cc2)cc(OC)c1 [Compound 198, Nα-Isobutyl-Nα-(4-aminobenzenesulfonyl)-Nε-3,5-dimethoxydihydrocinnamoyl-L-lysine] | 32.2 nM |
| COc1ccc(CCC(=O)NCCCC[C@@H](C(=O)O)N(CC(C)C)S(=O)(=O)c2ccc(N)cc2)cc1OC [Compound 200, Nα-Isobutyl-Nα-(4-aminobenzenesulfonyl)-Nε-(3,4-dimethoxydihydrocinnamoyl)-L-lysine] | 132 nM |
| COc1cccc(CCC(=O)NCCCC[C@@H](C(=O)O)N(CC(C)C)S(=O)(=O)c2ccc(C)cc2)c1OC [Compound 201, Nα-Isobutyl-Nα-(4-methylbenzenesulfonyl)-Nε-(2,3-dimethoxydihydrocinnamoyl)-L-lysine] | 15 nM |
| Cc1ccc(S(=O)(=O)N(CC(C)C)[C@@H](CCCCNC(=O)COc2ccccc2)C(=O)O)cc1 [Compound 203, Nα-Isobutyl-Nα-(4-methylbenzenesulfonyl)-Nε-phenoxyacetyl-L-lysine] | 17.5 nM |

same assay, conditions: fluorometric FRET assay, recombinant HIV-1 protease, pH 4.7, 31° C.; read-out: Ki

| Compound | Ki |
| --- | --- |
| COc1cccc(CCC(=O)NCCCC[C@@H](C(=O)O)N(CC(C)C)S(=O)(=O)c2ccc(N)cc2)c1OC [Compound 119, Nα-Isobutyl-Nα-(4-aminobenzenesulfonyl)-Nε-(2,3-dimethoxydihydrocinnamoyl)-L-lysine] | 6.2 nM |
| COc1ccc(CCC(=O)NCCCC[C@@H](C(=O)O)N(CC(C)C)S(=O)(=O)c2ccc(N)cc2)cc1 [Compound 120, Nα-Isobutyl-Nα-(4-aminobenzenesulfonyl)-Nε-(4-methoxydihydrocinnamoyl)-L-lysine] | 12.4 nM |
| CC(C)CN([C@@H](CCCCNC(=O)CCCc1ccccc1)C(=O)O)S(=O)(=O)c1ccc(N)cc1 [Compound 121, Nα-Isobutyl-Nα-(4-aminobenzenesulfonyl)-Nε-(4-phenylbutanoyl)-L-lysine] | > 300 nM |
| CC(C)CN([C@@H](CCCCNC(=O)CCc1ccccc1N)C(=O)O)S(=O)(=O)c1ccc(N)cc1 [Compound 122, Nα-Isobutyl-Nα-(4-aminobenzenesulfonyl)-Nε-(2-aminodihydrocinnamoyl)-L-lysine] | > 300 nM |
| COC(=O)[C@H](CCCCNC(=O)OCC1c2ccccc2-c2ccccc21)N(CC(C)C)S(=O)(=O)c1ccc(C)cc1 [Compound 123, Nα-Isobutyl-Nα-(4-methylbenzenesulfonyl)-Nε-(9-fluorenylmethoxycarbonyl)-L-lysine Methyl Ester] | > 300 nM |
| Cc1ccc(S(=O)(=O)N(CC(C)C)[C@@H](CO)CCCCNC(=O)OCC2c3ccccc3-c3ccccc32)cc1 [Compound 124, (2R)-N-Isobutyl-N-(4-methylbenzenesulfonylamino)-6-(9-fluorenylmethoxycarboxylamino)-1-hexanol] | 208 nM |
| Cc1ccc(S(=O)(=O)N(CC(C)C)C(CCCCNC(=O)OCC2c3ccccc3-c3ccccc32)C(N)=O)cc1 [Compound 125, (2R,2S)-N-Isobutyl-N-(4-methylbenzenesulfonylamino)-6-(9-fluorenylmethoxycarboxylamino)-1-hexanamide] | 107 nM |
| Cc1ccc(S(=O)(=O)N(CC(C)C)[C@@H](CCCCNC(=O)CCc2ccc(O)cc2)C(=O)O)cc1 [Compound 126, Nα-Isobutyl-Nα-(4-methylbenzenesulfonyl)-Nε-(4-hydroxydihydrocinnamoyl)-L-lysine] | > 300 nM |
| CC(C)(C)OC(=O)N[C@@H](CCCNC(=O)OCc1ccccc1)C(=O)O [Compound 137] | > 200000 nM |
| Cc1ccc(S(=O)(=O)N(CC(C)C)C(CCCCNC(=O)OCC2c3ccccc3-c3ccccc32)C(=O)NO)cc1 [Compound 141, (2R,2S)-N-Isobutyl-N-(4-methylbenzenesulfonylamino)-6-(9-fluorenylmethoxycarboxylamino)-1-hydroxylhexamide] | 245 nM |
| CC(C)(C)OC(=O)N[C@@H](CCCCNS(=O)(=O)c1ccc(Br)cc1)C(=O)O [Compound 143] | 660000 nM |
| Cc1ccc(S(=O)(=O)NCCC[C@H](NC(=O)OCC2c3ccccc3-c3ccccc32)C(=O)O)cc1 [Compound 149, Nδ-(4-Methylbenzenesulfonyl)-Nα-(9-fluorenylmethoxycarbonyl)-L-ornithine] | 10100 nM |
| CC(C)CN([C@@H](CCCCNC(=O)CCc1ccc2c(c1)OCO2)C(=O)O)S(=O)(=O)c1ccc(N)cc1 [Compound 155, Nα-Isobutyl-Nα-(4-aminobenzenesulfonyl)-Nε-(3,4-methylenedioxydihydrocinnamoyl)-L-lysine] | 15.7 nM |
| COc1cccc(CCC(=O)NCCCC[C@@H](C(=O)O)N(CC(C)C)S(=O)(=O)c2ccc(N)cc2)c1 [Compound 156, Nα-Isobutyl-Nα-(4-aminobenzenesulfonyl)-Nε-(3-methoxydihydrocinnamoyl)-L-lysine] | 16.7 nM |
| COc1ccccc1CCC(=O)NCCCC[C@@H](C(=O)O)N(CC(C)C)S(=O)(=O)c1ccc(N)cc1 [Compound 157, Nα-Isobutyl-Nα-(4-aminobenzenesulfonyl)-Nε-(2-methoxydihydrocinnamoyl)-L-lysine] | 18.9 nM |
| CC(C)CN([C@@H](CCCCNC(=O)CCc1ccccc1)C(=O)O)S(=O)(=O)c1ccc(N)cc1 [Compound 158, Nα-Isobutyl-Nα-(4-aminobenzenesulfonyl)-Nε-dihydrocinnamoyl-L-lysine] | > 300 nM |
| CC(C)CN([C@@H](CCCCNC(=O)COc1ccccc1)C(=O)O)S(=O)(=O)c1ccc([N+](=O)[O-])cc1 [Compound 160, Nα-Isobutyl-Nα-(4-nitrobenzenesulfonyl)-Nε-phenoxyacetyl-L-lysine] | 24.5 nM |
| COc1ccccc1/C=C/C(=O)NCCCC[C@@H](C(=O)O)N(CC(C)C)S(=O)(=O)c1ccc([N+](=O)[O-])cc1 [Compound 161, Nα-Isobutyl-Nα-(4-nitrobenzenesulfonyl)-Nε-(trans-2-methoxycinnamoyl)-L-lysine] | > 300 nM |
| COc1cccc(C=CC(=O)NCCCC[C@@H](C(=O)O)N(CC(C)C)S(=O)(=O)c2ccc([N+](=O)[O-])cc2)c1 [Compound 162, Nα-Isobutyl-Nα-(4-nitrobenzenesulfonyl)-Nε-(3-methoxycinnamoyl)-L-lysine] | > 300 nM |
| CC(C)CN([C@@H](CCCCNC(=O)C=Cc1ccc2c(c1)OCO2)C(=O)O)S(=O)(=O)c1ccc([N+](=O)[O-])cc1 [Compound 163, Nα-Isobutyl-Nα-(4-nitrobenzenesulfonyl)-Nε-(3,4-methylenedioxycinnamoyl)-L-lysine] | > 300 nM |
| CC(C)CN([C@@H](CCCCNC(=O)/C=C/c1cccnc1)C(=O)O)S(=O)(=O)c1ccc([N+](=O)[O-])cc1 [Compound 164, Nα-Isobutyl-Nα-(4-nitrobenzenesulfonyl)-Nε-(trans-3-(3-pyridyl)acryloyl)-L-lysine] | > 300 nM |
| COc1ccccc1/C=C\C(=O)NCCCC[C@@H](C(=O)O)N(CC(C)C)S(=O)(=O)c1ccc([N+](=O)[O-])cc1 [Compound 186, Nα-Isobutyl-Nα-(4-nitrobenzenesulfonyl)-Nε-(cis-2-methoxycinnamoyl)-L-lysine] | 39.8 nM |
| COc1cc(C=CC(=O)NCCCC[C@@H](C(=O)O)N(CC(C)C)S(=O)(=O)c2ccc([N+](=O)[O-])cc2)cc(OC)c1 [Compound 189, Nα-Isobutyl-Nα-(4-nitrobenzenesulfonyl)-Nε-(3,5-dimethoxycinnamoyl)-L-lysine] | 108 nM |
| COc1ccc(OC)c(C=CC(=O)NCCCC[C@@H](C(=O)O)N(CC(C)C)S(=O)(=O)c2ccc([N+](=O)[O-])cc2)c1 [Compound 190, Nα-Isobutyl-Nα-(4-nitrobenzenesulfonyl)-Nε-(2,5-dimethoxycinnamoyl)-L-lysine] | > 75 nM |
